Measured values from patent US11772141B1, “Method for targeted regulation of soil microbes to synchronize heavy metal/metalloid transformation and greenhouse gas emission reduction and use” (priority 2022, dated 2023).

How the values were obtained:
soil microbes = conditions: Met 1 mM, Met:Fat 1:10 in combinations
Protocol: 5 grams of arsenic-contaminated rice field soils taken from Hunan Province, China was placed into a 20 mL glass sample tube, 2.5 mL of sterilized culture medium was added, and then the glass sample tube was placed in an anaerobic glove box for cultivation. The culture medium was composed of 10 mM NH4Cl, 5 mM NaHCO3, 1 mM KH2PO4, 0.5 mM MgCl2, 0.5 CaCl2, 1 mL of L^−1 vitamin and 1 mL/L of trace elements. […] After addition of the Met and the Fat and after further reaction for 60 days, headspace gas was collected and measured by GC-TCD, a soil suspension was extracted, and ammonium dihydrogen phosphate was added to desorb adsorbed methyl arsenic. After the resulted soil suspension passed through a 0.22-micron membrane, methyl arsenic, including monomethylarsenic, dimethylarsenic and trimethylarsenic oxides, in a soil solution was measured by HPLC-ICPMS. […]
After further anaerobic culture for 60 days, headspace gas was collected and measured by GC-TCD, a soil suspension was extracted, and ammonium dihydrogen phosphate was added to desorb adsorbed methyl arsenic. After the resulted soil suspension passed through a 0.22-micron membrane, the methyl arsenic in the soil solution was measured by HPLC-ICPMS.

arsM gene = conditions: soil control 950
Protocol: Construction of the plasmid standard was performed by ligating a vector pUC19 with a PCR product of arsM or mcrA gene. After a single clone was picked, plasmid DNA was extracted, the DNA concentration was measured with Qubit 3.0 Fluorometer, the gene copy number was calculated, and then the EASY dilution solution was diluted to 10^2-10^8(copy number per μL) to obtain a Standard curve. […] Information and reaction procedures of the primers used for amplification of the arsM and mcrA genes were as follows:
arsM amplification reaction program: at 95° C. for 10 min; at 95° C. for 30 s, at 60° C. for 45 s, and at 72° C. for 1 min, 40 cycles; and prolonging at 72° C. for 10 min;

mcrA gene = conditions: soil control 1.5*10^6
Protocol: Construction of the plasmid standard was performed by ligating a vector pUC19 with a PCR product of arsM or mcrA gene. After a single clone was picked, plasmid DNA was extracted, the DNA concentration was measured with Qubit 3.0 Fluorometer, the gene copy number was calculated, and then the EASY dilution solution was diluted to 10^2-10^8(copy number per μL) to obtain a Standard curve.
mcrA amplification reaction program: at 95° C. for 10 min; at 95° C. for 15 s, at 58° C. for 30 s, and at 72° C. for 30 s, 40 cycles; and prolonging at 72° C. for 2 min.

CSCC[C@H](N)C(=O)O [methionine]
production of methyl arsenic (soil microbes; 60 days anaerobic reaction): 0.1 µM
methane emission (soil microbes; 60 days, control group 5.5 mM): 18.7 mM
transcript copy number of arsM (arsM gene): 1200 copies per g of soils
transcript copy number of mcrA (mcrA gene): 2.0*10^7 copies per g of soils
